Consider eight compounds from patent US20060142572A1, “Inhibitors of ERK protein kinase and uses thereof” (priority 2004, published 2006).

Some results are limits rather than exact numbers.

The target in the assay is activated ERK2 (Homo sapiens, UniProt P28482). Nature of the assay: ERK2 inhibition assay (spectrophotometric coupled-enzyme assay). It counts as biochemical. The settings on record: activated ERK2 10 nM, 65 μM ATP, 200 μM erktide peptide, 30° C., pH 7.5. How it is done: Compounds were assayed for the inhibition of ERK2 by a spectrophotometric coupled-enzyme assay (Fox et al., Protein Sci. 7:2249, 1998). In this assay, a fixed concentration of activated ERK2 (10 nM) was incubated with various concentrations of a compound of the present invention in DMSO (2.5%) for 10 min. at 30° C. in 0.1 M HEPES buffer (pH 7.5), containing 10 mM MgCl2, 2.5 mM phosphoenolpyruvate, 200 μM NADH, 150 μg/ml pyruvate kinase, 50 μg/ml lactate dehydrogenase, and 200 μM erktide peptide. The reaction was initiated by the addition of 65 μM ATP. The rate of decrease of absorbance at 340 nm was monitored.
Chain of activated ERK2 (P28482 whole entry): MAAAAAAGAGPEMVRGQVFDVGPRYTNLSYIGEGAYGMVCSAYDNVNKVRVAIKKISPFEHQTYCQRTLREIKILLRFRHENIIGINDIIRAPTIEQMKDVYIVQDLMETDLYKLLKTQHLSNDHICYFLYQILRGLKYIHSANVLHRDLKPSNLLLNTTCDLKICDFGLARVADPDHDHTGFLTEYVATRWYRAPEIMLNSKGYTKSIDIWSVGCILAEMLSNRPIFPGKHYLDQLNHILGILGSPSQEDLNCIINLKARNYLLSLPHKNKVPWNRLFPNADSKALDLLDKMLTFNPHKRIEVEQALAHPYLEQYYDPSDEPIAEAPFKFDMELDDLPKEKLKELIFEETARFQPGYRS
For the compound `CC(C)Nc1ncc(Cl)c(NCC(=O)N[C@H](CO)c2cccc(Cl)c2)n1` [Compound I-1], the Ki (commonly the dissociation constant of the complex between target and ligand, obtained from inhibition or displacement) is over 700 nM. Regarding `C[C@@H](CO)Nc1ncc(Cl)c(NCC(=O)N[C@H](CO)c2cccc(Cl)c2)n1` [Compound I-2, 2-[5-chloro-2-(2-hydroxy-1-methylethylamino)-pyrimidin-4-ylamino]-N-[1-(3-chlorophenyl)-2-hydroxyethyl]acetamide], the Ki is at most 700 nM.

As for `CC(C)Nc1ncc(Cl)c(NCCC(=O)N[C@H](CO)c2cccc(Cl)c2)n1` [Compound I-3], the Ki is over 700 nM. Then `C[C@@H](CO)Nc1ncc(Cl)c(NCCC(=O)N[C@H](CO)c2cccc(Cl)c2)n1` [Compound I-4], with over 700 nM; and `C[C@@H](CO)Nc1ncc(Cl)c(NC2(C(=O)N[C@H](CO)c3cccc(Cl)c3)CC2)n1` [Compound I-5, 1-(5-chloro-2-(2-hydroxy-1-methylethylamino)-pyrimidin-4-ylamino)-cyclopropanecarboxylic acid [1-(3-chlorophenyl)-2-hydroxyethyl]-amide], with over 700 nM; and `CC[C@@H](CO)Nc1ncc(Cl)c(NC2(C(=O)N[C@H](CO)c3cccc(Cl)c3)CC2)n1` [Compound I-6], with over 700 nM. To `C[C@@H](CO)Nc1ncc(Cl)c(N(C)CC(=O)N[C@H](CO)c2cccc(Cl)c2)n1` [Compound I-7, 2-{[5-chloro-2-(2-hydroxy-1-methylethylamino)pyrimidin-4-yl]-methylamino}-N-[1-(3-chlorophenyl)-2-hydroxyethyl]acetamide] belongs over 700 nM. Take `C[C@@H](CO)Nc1nccc(N(C)CC(=O)N[C@H](CO)c2cccc(Cl)c2)n1` [Compound I-8]: the Ki is over 700 nM.
